Measured values from patent publication US20060205809A1, “Pharmaceutical preparation containing palladium complex compounds and the uses thereof for treating cancer and autoimmune disease” (priority 2002, published 2006).
Like-named read-outs stand apart in the source and are kept apart here.

Key:
CALU-6 (lung cancer) = assay: Cytotoxicity assay, 2 h drug exposure at pH 6.8 or 7.4, crystal violet staining; format: cell-based, human; settings: then 72 h
Experimental: (§1) The Pd-complexes were dissolved in acetone (1 mg/ml stock solution). Human cancer cell lines SK-MEL 25 (melanoma) and CALU-6 (lung cancer) were used for the determination of the cytotoxic activity of Pd-complexes. For comparison, the well known anti-tumor drugs cisplatin and corresponding platinum complexes were included. Cells were seeded at a density of 2×10^6 cells/96 well plate. After 24 h, tissue culture medium was removed and fresh medium supplemented with 10% fetal calf serum and 100 units/ml penicillin/streptomycin containing either 2.2 g/l (pH 7.4) or 0.85 g/l (pH 6.8) NaHCO3 was added. After 1 hour of equilibration in an atmosphere containing 5% CO2, drugs were added at various concentrations (50, 25, 12.5, 6.25, 3.1, 1.6, 0.8 μg/ml) in quadruplicate. Untreated cultures served as controls. Two hours later, the culture medium was replaced with 0.1 ml of fresh tissue culture medium (pH 7.4, 10% fetal calf serum). Culture plates were then incubated for 48 h (SK-MEL 25) or 72 h (Calu-6) at 37° C. Then, cells were fixed with 3% formaldehyde and stained with 1% crystalviolet. The number of viable cells is proportional to the amount of bound cristalviolet. Therefore, the relative cell number could be determined at an Antos 2001 ELISA reader (550 nm). Dose response curves were established from the OD data and the concentration at which the cell number was reduced to 50% of the control (IC50) was determined.

SK-MEL 25 (melanoma) = assay: as above; format: cell-based, human; settings: then 48 h
Experimental: as §1

[1] = CALU-6, pH 6.8, 2 h drug exposure, read-out: IC50-values, CALU-6, pH 6.8
[2] = CALU-6, pH 7.4, 2 h drug exposure, read-out: IC50-values, CALU-6, pH 7.4
[3] = SK-MEL 25, pH 6.8, 2 h drug exposure, read-out: IC50-values, SK-MEL 25, pH 6.8
[4] = SK-MEL 25, pH 7.4, 2 h drug exposure, read-out: IC50-values, SK-MEL 25, pH 7.4

Row | SMILES | IC50 (CALU-6 (lung cancer); [1]) | IC50 (CALU-6 (lung cancer); [2]) | IC50 (SK-MEL 25 (melanoma); [3]) | IC50 (SK-MEL 25 (melanoma); [4])
1 | CCOC(=S)[S-].CCOC(=S)[S-].[Pt+2] [Bis(O-ethyl-dithiocarbonato) platin, reference compound] | 12 µM | 28 µM | 21 µM | 45 µM
2 | CC(C)OC(=S)[S-].CC(C)OC(=S)[S-].[Pt+2] [Bis(O-isopropyl-dithiocarbonato)platin, reference compound] | 6 µM | 10 µM | 6 µM | 12 µM
3 | N.N.[Cl][Pt][Cl] [Cisplatin, reference compound] | 6.25 µM | 6.25 µM | 25 µM | 25 µM
4 | S=C([S-])OC1CCCCC1.S=C([S-])OC1CCCCC1.[Pd+2] [compound 1, Bis(O-cyclohexyl-dithiocarbonato)palladium(II)] | 2 µM | 4 µM | 6 µM | 10 µM
5 | CC(C)OC(=S)[S][Pd][S]C(=S)OC(C)C [compound 2, Bis(O-isopropyl-dithiocarbonato)palladium(II)] | 0.6 µM | 1.6 µM | 0.8 µM | 1.3 µM
6 | CCOC(=S)[S][Pd][S]C(=S)OCC [compound 3, Bis(O-ethyl-dithiocarbonato)palladium(II)] | 2 µM | 8 µM | 5 µM | 14 µM
7 | CCC(C)COC(=S)[S][Pd][S]C(=S)OCC(C)CC (stereo not shown) [compound 4, Bis(O-(2-methyl)-butyl-dithiocarbonato)palladium(II)] | 2 µM | 6 µM | 6 µM | 9 µM
8 | CCCCOC(=S)[S-].CCCCOC(=S)[S-].[Pd+2] [compound 5, Bis(O-butyl-dithiocarbonato)palladium(II)] | 1 µM | 2.5 µM | 1 µM | 3.1 µM
9 | CCCCCCOC(=S)[S-].CCCCCCOC(=S)[S-].[Pd+2] [compound 6, Bis(O-hexyl-dithiocarbonato)palladium(II)] | 3.1 µM | 6.25 µM | 10 µM | 10 µM
10 | COC(=S)[S-].COC(=S)[S-].[Pd+2] [compound 7, Bis(O-methyl-dithiocarbonato)palladium(II)] | 1.6 µM | 4.5 µM | 4.5 µM | 6.2 µM
